# Assay results reported in US6951729B1, “High throughput screening method for biological agents affecting fatty acid biosynthesis” (Affinium Pharmaceuticals, Inc., priority 1999, dated 2005).
# What was measured:
# [1] = system: bacterial fatty acid biosynthesis; details: cited from earlier work
# FabK = FabK activity assay, activation by monovalent cations; format: biochemical, Streptococcus pneumoniae; details: NH4+ at 100 mM
# Protocol: FabK catalyses the reduction of enoyl-ACPs with the concommitant oxidation of NADH. Crotonoyl-ACP can be prepared as described below. The reduction of crotonoyl-ACP to butyryl-ACP can be monitored by following the change in absorbance at 340 nm as NADH is oxidised.
# Assays were carried out in Costar 3696 half-area plates in a fmal assay volume of 150 μl on a Spectramax platereader. Substrates, NADH and crotonoyl ACP, were incubated with FabK enzyme in […] N-[2-acetamido]-2 iminodiacetic acid (ADA), pH 6.5, 100 mM NH4Cl, 4% glycerol at 30° C. and the reaction monitored at 340 nm. This assaying can also be performed using crotonyl CoA, NADPH or an NADH analogue as a substrate.
# FabH [2] = details: through formation of dead end inhibition complexes with enzyme
# FabH [3] = biological target: FabH (Escherichia coli, UniProt P0A6R0); details: Heath et al. 1996; cited from earlier work
# FabI = FabI (Escherichia coli, UniProt P0AEK4); details: Heath et al. 1996; cited from earlier work
# Chain of FabI (P0AEK4 whole entry): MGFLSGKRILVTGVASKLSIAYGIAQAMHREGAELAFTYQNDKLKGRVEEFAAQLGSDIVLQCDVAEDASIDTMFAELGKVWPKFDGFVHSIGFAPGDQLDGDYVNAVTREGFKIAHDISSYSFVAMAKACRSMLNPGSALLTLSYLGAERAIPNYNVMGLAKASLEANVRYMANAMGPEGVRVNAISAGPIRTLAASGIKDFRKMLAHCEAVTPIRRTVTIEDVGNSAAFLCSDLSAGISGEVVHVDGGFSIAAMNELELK
# Chain of FabH (Escherichia coli, UniProt P0A6R0) (P0A6R0 whole entry): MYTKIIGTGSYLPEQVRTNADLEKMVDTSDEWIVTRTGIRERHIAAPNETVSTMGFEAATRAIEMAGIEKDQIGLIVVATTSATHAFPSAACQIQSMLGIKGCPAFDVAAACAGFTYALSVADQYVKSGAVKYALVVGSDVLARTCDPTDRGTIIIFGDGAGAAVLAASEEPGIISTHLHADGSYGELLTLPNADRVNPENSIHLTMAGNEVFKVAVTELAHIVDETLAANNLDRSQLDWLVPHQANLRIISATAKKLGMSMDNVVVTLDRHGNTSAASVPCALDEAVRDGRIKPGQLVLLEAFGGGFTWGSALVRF
compound,measurement,setting,value
C/C=C/C/C=C/CCC(=O)[C@H]1O[C@H]1C(N)=O [Cerulenin],inhibition of bacterial fatty acid biosynthesis,[1],potent inhibitors
N [NH4^+],activation of the FabK reaction over the reaction with no monovalent cations,FabK,about 300 fold
C=C/C(C)=C/[C@@]1(C)SC(=O)C(C)=C1O [thiolactomycin],inhibition of bacterial fatty acid biosynthesis,[1],potent inhibitors
Acetyl-ACP,inhibition of FabH,FabH [2],inhibitor of FabH
palmitoyl-ACP,feedback inhibition of FabH,FabH [3],feedback inhibition
same,feedback inhibition of FabI,FabI,feedback inhibition
